According to patent US20240246942A1, “KINASE INHIBITORS FOR THE TREATMENT OF NEURODEGENERATIVE DISEASES” (priority 2020, published 2024):

Legend:
Assay in all cases: biochemical
[1] = molecular target: T1, panel of 374 wild-type kinases (Homo sapiens, UniProt Q99986); details: read-out: % Enzyme Activity (relative to DMSO controls), kinase VRK1
T1 construct: purchased Reaction Biology Corporation
T1 sequence (Q99986 1-396): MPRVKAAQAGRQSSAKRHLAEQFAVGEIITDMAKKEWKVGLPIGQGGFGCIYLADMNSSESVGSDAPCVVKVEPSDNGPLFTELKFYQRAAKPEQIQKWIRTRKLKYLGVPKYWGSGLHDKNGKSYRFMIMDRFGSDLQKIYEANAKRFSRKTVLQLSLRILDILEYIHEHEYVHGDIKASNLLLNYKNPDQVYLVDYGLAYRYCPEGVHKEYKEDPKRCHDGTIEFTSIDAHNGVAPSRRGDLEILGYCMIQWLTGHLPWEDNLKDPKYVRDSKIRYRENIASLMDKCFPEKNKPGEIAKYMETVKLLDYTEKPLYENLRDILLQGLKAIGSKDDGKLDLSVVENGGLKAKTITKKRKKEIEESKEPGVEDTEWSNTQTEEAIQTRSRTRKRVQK

[2] = molecular target: T2, panel of 374 wild-type kinases (Homo sapiens, UniProt Q14289); details: read-out: % Enzyme Activity (relative to DMSO controls), kinase PYK2
T2 construct: purchased Reaction Biology Corporation

[3] = molecular target: T3, panel of 374 wild-type kinases (Homo sapiens, UniProt Q13163); details: read-out: % Enzyme Activity (relative to DMSO controls), MEK5
T3 construct: purchased Reaction Biology Corporation
T3 sequence (Q13163 1-448): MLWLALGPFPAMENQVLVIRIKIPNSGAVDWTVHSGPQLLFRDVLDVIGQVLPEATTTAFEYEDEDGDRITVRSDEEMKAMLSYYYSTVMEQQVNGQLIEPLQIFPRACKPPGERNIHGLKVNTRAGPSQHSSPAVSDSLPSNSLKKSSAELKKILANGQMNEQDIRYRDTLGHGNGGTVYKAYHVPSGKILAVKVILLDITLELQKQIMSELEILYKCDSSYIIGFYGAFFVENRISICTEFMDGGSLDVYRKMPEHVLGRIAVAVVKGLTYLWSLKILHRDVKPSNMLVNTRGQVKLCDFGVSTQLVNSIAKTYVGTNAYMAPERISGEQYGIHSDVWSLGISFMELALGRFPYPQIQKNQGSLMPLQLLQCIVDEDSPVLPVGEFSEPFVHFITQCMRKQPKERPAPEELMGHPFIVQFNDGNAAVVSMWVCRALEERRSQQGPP

[4] = molecular target: T4, panel of 374 wild-type kinases (Homo sapiens, UniProt O43318); details: read-out: % Enzyme Activity (relative to DMSO controls), kinase TAK1
T4 construct: purchased Reaction Biology Corporation
T4 sequence (O43318 1-606): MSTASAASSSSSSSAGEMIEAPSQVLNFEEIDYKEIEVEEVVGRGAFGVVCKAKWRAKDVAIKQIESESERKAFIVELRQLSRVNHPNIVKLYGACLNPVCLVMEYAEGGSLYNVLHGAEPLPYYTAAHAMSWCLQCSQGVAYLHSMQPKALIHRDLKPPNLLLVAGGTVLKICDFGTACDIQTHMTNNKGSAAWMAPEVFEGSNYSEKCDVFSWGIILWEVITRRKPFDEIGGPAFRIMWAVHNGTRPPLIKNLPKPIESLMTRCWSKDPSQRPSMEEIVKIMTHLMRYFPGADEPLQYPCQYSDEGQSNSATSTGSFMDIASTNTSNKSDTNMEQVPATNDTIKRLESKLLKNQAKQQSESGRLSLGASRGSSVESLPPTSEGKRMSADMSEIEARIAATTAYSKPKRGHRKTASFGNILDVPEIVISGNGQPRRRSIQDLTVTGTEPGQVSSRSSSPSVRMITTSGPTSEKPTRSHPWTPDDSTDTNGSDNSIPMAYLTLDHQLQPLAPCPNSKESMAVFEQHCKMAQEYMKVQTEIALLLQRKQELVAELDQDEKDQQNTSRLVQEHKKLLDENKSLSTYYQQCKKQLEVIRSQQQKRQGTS

[5] = molecular target: T5, panel of 374 wild-type kinases (Homo sapiens, UniProt Q96PY6); details: read-out: % Enzyme Activity (relative to DMSO controls), NEK1
T5 construct: purchased Reaction Biology Corporation
T5 sequence (Q96PY6 1-1258): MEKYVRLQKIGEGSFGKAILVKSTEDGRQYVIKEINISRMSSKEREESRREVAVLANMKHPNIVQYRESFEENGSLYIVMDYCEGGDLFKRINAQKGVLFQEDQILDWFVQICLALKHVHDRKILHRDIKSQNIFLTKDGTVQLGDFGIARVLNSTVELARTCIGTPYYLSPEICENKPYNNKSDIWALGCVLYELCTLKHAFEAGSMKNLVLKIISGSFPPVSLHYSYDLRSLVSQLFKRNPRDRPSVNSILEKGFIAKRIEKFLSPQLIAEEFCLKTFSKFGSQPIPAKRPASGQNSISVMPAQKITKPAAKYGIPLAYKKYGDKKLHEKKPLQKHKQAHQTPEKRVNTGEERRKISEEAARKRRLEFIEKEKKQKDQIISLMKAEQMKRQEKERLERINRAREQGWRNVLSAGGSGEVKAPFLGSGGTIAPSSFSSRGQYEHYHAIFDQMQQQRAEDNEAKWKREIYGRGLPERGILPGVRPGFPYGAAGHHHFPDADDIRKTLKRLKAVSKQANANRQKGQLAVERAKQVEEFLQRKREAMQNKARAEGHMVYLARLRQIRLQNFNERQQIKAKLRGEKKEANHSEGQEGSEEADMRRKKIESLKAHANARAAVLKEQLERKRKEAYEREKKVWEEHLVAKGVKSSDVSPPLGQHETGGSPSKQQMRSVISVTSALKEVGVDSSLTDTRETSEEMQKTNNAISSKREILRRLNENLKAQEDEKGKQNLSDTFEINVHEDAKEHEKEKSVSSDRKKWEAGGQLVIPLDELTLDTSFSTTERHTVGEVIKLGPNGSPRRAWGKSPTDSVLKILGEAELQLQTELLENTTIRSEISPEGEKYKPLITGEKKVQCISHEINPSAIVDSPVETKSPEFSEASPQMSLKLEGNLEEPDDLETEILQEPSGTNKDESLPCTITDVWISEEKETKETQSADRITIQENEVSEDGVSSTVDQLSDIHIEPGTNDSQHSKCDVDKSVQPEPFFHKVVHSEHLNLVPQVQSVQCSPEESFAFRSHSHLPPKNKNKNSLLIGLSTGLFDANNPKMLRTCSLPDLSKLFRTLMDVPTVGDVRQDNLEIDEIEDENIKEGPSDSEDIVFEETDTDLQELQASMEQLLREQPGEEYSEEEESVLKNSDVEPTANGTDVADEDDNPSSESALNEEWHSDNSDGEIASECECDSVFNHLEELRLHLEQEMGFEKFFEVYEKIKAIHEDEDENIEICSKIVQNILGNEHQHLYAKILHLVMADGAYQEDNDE

T2 sequence (Q14289 whole entry): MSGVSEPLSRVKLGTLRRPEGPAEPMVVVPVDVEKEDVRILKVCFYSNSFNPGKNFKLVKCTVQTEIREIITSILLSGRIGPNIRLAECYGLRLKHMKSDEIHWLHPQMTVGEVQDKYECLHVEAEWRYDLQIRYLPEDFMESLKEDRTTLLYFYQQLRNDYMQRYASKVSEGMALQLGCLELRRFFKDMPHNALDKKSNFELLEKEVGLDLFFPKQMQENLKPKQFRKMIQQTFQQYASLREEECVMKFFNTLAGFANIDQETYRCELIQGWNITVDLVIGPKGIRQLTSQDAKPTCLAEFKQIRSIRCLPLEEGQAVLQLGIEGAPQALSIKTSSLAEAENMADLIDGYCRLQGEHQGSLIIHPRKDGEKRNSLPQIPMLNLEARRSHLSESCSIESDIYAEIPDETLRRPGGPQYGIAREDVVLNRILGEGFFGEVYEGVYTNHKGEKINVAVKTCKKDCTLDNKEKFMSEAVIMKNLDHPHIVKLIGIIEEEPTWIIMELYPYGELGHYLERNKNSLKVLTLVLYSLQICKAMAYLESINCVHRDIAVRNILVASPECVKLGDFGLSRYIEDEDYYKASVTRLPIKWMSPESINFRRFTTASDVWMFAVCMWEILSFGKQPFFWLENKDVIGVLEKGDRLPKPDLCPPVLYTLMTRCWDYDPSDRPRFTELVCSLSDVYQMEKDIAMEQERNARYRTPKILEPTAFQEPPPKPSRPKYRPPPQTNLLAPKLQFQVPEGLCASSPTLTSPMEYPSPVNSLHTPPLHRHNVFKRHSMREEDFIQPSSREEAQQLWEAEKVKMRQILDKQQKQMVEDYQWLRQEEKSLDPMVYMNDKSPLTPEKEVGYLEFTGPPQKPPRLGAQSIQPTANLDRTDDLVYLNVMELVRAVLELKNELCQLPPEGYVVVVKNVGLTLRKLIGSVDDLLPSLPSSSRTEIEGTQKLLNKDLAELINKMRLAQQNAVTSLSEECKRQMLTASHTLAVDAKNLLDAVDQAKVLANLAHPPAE

Compound	remaining activity at 10 µM ([1]; 10 uM) [%]	remaining activity at 10 µM ([2]; 10 uM) [%]	remaining activity at 10 µM ([3]; 10 uM) [%]	remaining activity at 10 µM ([4]; 10 uM) [%]	remaining activity at 10 µM ([5]; 10 uM) [%]	remaining activity at 5 µM [1] [%]	remaining activity at 5 µM [2] [%]	remaining activity at 5 µM [3] [%]	remaining activity at 5 µM [4] [%]	remaining activity at 5 µM [5] [%]
Cc1sc(C(=O)NC2COC2)cc1-n1cc(NC(=O)Nc2c(F)cccc2Cl)cn1 [Compound 27, 4-(4-(3-(2-chloro-6-fluorophenyl)ureido)-1H-pyrazol-1-yl)-5-methyl-N-(oxetan-3-yl)thiophene-2-carboxamide]	109	104	96.8	98.4	90.4	–	–	–	–	–
O=C(Nc1cnn(-c2csc(C(=O)NC3COC3)c2)c1)Nc1c(F)cccc1Cl [Compound 25, 4-(4-(3-(2-chloro-6-fluorophenyl)ureido)-1H-pyrazol-1-yl)-N-(oxetan-3-yl)thiophene-2-carboxamide]	–	–	–	–	–	91.9	91	103	109	77.2
O=C(Nc1cnn(-c2csc(C(=O)NC3COC3)c2)c1)Nc1ccccc1Cl [Compound 17, 4-(4-(3-(2-chlorophenyl)ureido)-1H-pyrazol-1-yl)-N-(oxetan-3-yl)thiophene-2-carboxamide]	–	–	–	–	–	109	93.5	98.2	98	115
